Patent US10377731B2, “Compositions and methods for cancer treatment” (Boston Biomedical, Inc., priority 2007, dated 2019)
“Also recorded” adds a separate entry of the source.

How the values were obtained:
Stat3 [1] = experiment: Stat3-luciferase (Stat3-Luc) reporter assay, OSM-stimulated HeLa cells; format: cell-based; details: HeLa cells
Procedure: Luciferase Reporter Assay: HeLa Cells were co-transfected with Stat3-luciferase (Stat3-Luc) reporter vector (Panomics, Fremont, Calif.) and Renilla luciferase (Promega, Madison, Wis.) using Lipofectamine 2000 as described by the manufacturer (Invitrogen). Following transfection, cells were maintained in medium containing 0.5% FBS for 24 hours. Cells were then treated with the indicated compound for 30 minutes prior to the addition of 25 ng/ml oncostatin M (OSM) (R&D Systems, Minneapolis, Minn.) to the medium. 6 hours following OSM addition, cells were harvested and levels of firefly and renilla luciferase were measured using the Dual-Glo Luciferase Assay System as described by the manufacturer (Promega).
Inhibition of Stat3 transcription activity. Compounds were tested for their ability to inhibit Stat3 transcription activation activity in cells using a Stat3-luciferase (Stat3-luc) reporter construct. Cells transfected with Stat3-luc were cultured in reduced serum medium prior to addition of indicated compound for 30 minutes. Cells were then stimulated with 25 ng/ml oncostatin M (OSM) for 6 hours followed by detection of Stat3-luc reporter activity. […] AG490, a known inhibitor of the Jak-Stat pathway, was included as a positive control for Stat3 inhibition.

Stat3 [2] = experiment: Stat3 DNA binding assay (EMSA), HeLa nuclear extract; format: biochemical; details: HeLa nuclear extract with constitutively activated Stat3
Procedure: STAT3 DNA Binding Assay: Electrophoretic mobility shift assay (EMSA) was performed as described by the manufacturer (Li-Cor Biosciences, Lincoln, Nebr.). Briefly, nuclear extracts were made from HeLa cells using the NucBuster Protein Extraction Kit as described by the manufacturer (EMD Biosciences, San Diego, Calif.). 5 μg of nuclear extract was pre-incubated with the indicated dose of indicated compound for 30 minutes prior to a 15-minute incubation with the IR700-labeled consensus Stat3 oligonucleotide. Samples were then electrophoresed on a polyacrylamide gel and directly scanned using the Odyssey infrared imaging system (Li-Cor Biosciences). For the enzyme-linked immunosorbent assay (ELISA), 5 μg of nuclear extract was preincubated with indicated concentration of indicated compound for 30 minutes prior to the addition of biotinylated oligo (5′-Biotin-[…]-3′ SEQ ID NO. 1). Stat3-DNA complexes were then captured on streptavidin coated 96 well plates (Pierce, Rockford, Ill.). Bound complexes were then incubated with Stat3 polyclonal antibody (Santa Cruz Biotechnology, Santa Cruz, Calif.) followed by anti-rabbit HRP conjugated secondary antibody (GE Healthcare, Pittsburgh, Pa.). Bound antibody was then visualized by addition of TMB substrate (Pierce) and absorbance measured at 450 nm.
Inhibition of Stat3 DNA-binding activity. Nuclear extracts from HeLa cells, which contain constitutively activated Stat3 as detected by phosphorylation at the tyrosine 705 residue, were used to perform Stat3 EMSAs to monitor Stat3 DNA binding activity. Nuclear extracts were incubated with indicated compound prior to incubation with IR700-labeled Stat3 consensus oligonucleotide. Binding of Stat3 to the oligonucleotide was monitored by gel electrophoresis and detection using a LiCor Odyssey infrared scanner.

CD133+ cells = experiment: Cleaved-Caspase 3 staining of CD133+ cells; format: cell-based; details: CD133+ cells enriched with antibody magnetic beads
Description: CSC isolation with surface markers: Sorting tumor cells based primarily upon the differential expression of the surface marker(s), such as CD44 or CD133, have accounted for the majority of the highly tumorigenic CSCs described to date. CD133 isolation is based upon the method of Ricci-Vitiani et al., with slight modification. CD133^+ cells were isolated by either fluorescence activated cell sorting (FACS) or magnetic nanoparticle-based separation. Briefly, 10^7 cells/mL were labeled with CD133/1 (AC133)-PE for FACS-based cell sorting; or with CD133/1 (AC133)-biotin (Miltenyi Biotec, Auburn, Calif.) for magnetic field-based separation using the EasySep® biotin selection kit (Miltenyi Biotec) according to the manufacturer's recommendations. Non-specific labeling was blocked with the supplied FcR blocking reagent and antibody incubations (1:11) were carried out on ice for 15 minutes in PBS with 2% FBS and 1 mM EDTA. Five washes were done for EasySep® isolation, whereas cells were pelleted at 400×g for 5 minutes and resuspended at 2×10^7/mL, before sorting by FACS.
Immunofluorescence: Cells treated with indicated compound for an indicated time were either fixed in 4% formaldehyde or cold methanol for the detection of Annexin V, cleaved caspase 3, or stat3, respectively. Coverslips were air dried and rehydrated in PBS at room temperature for 10 min. […]

CC(=O)c1cc2c(o1)C(=O)c1ccccc1C2=O [Compound 401, 2-acetylnaphtho[2,3-b]furan-4,9-dione]
Inhibition of OSM-stimulated Stat3 reporter activity (in words) (Stat3 [1]; Stat3-luc, 25 ng/ml OSM for 6 hours): inhibits
IC50 (Stat3 [1]; Homo sapiens, compound 30 minutes before 25 ng/ml oncostatin M, read 6 hours later, read-out: IC50 in Stat3-Luc assays): ~250 nM
Inhibition of Stat3 DNA-binding activity (in words) (Stat3 [2]): Dose dependent inhibition; also recorded: can inhibit
Cleaved-Caspase 3 staining (apoptosis) (CD133+ cells): many of the CD133^+ cells become cleaved-Caspase 3 positive; also recorded: apoptotic
